# Results as given in patent US20040024024A1, “Aromatic sulfone hydroxamates and their use as protease inhibitors” (priority 2001, published 2004).
# Tests used:
# Test in all cases: In vitro MMP inhibition, IC50 determination (fluorogenic substrate I)
# Format in all cases: biochemical
# Human recombinant MMP-13 = molecular target: T1, Human recombinant MMP-13 (Homo sapiens, UniProt P45452)
# T1 construct: made in house; host or cells: baculovirus / insect cells
# How it was run: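 Fluorescence at 415 nm (excitation 328 nm) reports Gly-Leu cleavage of 4 μM quenched methoxycoumarin peptide substrate I. Human recombinant MMP-13, activated by trypsin or APMA, was incubated at room temperature with varied inhibitor concentrations in pH 7.5 Tris/NaCl/CaCl2 buffer; IC50 derived from reduced fluorescence.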
# Human recombinant MMP-9 = molecular target: T2, Human recombinant MMP-9 (Homo sapiens, UniProt P14780)
# T2 construct: made in house; host or cells: MMP-9-transfected HT1080 cells (spent media)
# T2 sequence (P14780 107-707 limits assumed): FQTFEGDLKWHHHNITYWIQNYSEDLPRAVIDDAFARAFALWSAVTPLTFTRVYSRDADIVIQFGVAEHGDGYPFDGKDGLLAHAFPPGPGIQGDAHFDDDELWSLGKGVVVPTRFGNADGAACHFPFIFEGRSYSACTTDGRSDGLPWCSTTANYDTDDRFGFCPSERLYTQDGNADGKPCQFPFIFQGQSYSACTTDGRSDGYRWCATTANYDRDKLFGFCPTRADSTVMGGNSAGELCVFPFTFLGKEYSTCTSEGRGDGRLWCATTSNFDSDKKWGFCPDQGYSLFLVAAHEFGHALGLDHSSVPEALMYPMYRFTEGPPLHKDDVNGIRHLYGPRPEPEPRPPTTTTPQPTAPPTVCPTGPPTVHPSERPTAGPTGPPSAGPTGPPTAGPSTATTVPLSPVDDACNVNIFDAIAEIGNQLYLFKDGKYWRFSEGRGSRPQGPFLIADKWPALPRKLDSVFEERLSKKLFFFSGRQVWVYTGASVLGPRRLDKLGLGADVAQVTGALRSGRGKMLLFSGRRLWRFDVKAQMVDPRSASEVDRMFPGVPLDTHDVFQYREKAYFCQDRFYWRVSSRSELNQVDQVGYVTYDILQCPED
# How it was run: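 MMP-9 proenzyme purified from transfected HT1080 cell media, activated with APMA or trypsin. Compound dilutions in pH 7.5 Tris/NaCl/CaCl2 buffer with 0.05% polyoxyethylene 23 lauryl ether, incubated at room temperature with 4 μM MCA/Dpa substrate I. IC50 from fluorescence loss (ex 328, em 415 nm) versus inhibitor concentration.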
# Human recombinant MMP-2 = molecular target: T3, Human recombinant MMP-2 (Homo sapiens, UniProt P08253)
# T3 construct: made in house; host or cells: MMP-2-transfected p2AHT2 cells
# T3 sequence (P08253 110-660): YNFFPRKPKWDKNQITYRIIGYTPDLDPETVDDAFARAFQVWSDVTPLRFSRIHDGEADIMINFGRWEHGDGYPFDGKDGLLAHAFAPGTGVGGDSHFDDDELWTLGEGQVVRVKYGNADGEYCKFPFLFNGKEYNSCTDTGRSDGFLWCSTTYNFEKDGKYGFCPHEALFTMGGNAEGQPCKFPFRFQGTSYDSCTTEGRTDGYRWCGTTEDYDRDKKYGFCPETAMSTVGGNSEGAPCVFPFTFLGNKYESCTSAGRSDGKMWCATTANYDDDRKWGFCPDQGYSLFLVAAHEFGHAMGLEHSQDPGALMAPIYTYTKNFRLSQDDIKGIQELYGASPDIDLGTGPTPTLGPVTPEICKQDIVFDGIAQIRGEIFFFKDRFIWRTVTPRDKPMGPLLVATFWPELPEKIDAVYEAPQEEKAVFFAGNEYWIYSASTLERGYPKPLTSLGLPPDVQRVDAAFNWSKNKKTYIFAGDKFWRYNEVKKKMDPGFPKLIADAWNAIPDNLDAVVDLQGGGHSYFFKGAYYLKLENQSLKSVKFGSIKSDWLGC
# How it was run: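 APMA- or trypsin-activated recombinant MMP-2 was incubated at room temperature with serial inhibitor dilutions in Tris buffer pH 7.5 (100 mM NaCl, 10 mM CaCl2, 0.05% Brij), with DMSO from 1% stocks, and 4 μM substrate I. Cleavage was read by fluorescence at 328/415 nm; IC50 was taken from the loss of fluorescence versus inhibitor concentration.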
# Human recombinant MMP-1 = molecular target: T4, Human recombinant MMP-1 (Homo sapiens, UniProt P03956)
# T4 construct: made in house; host or cells: MMP-1-transfected HT-1080 cells (spent media)
# T4 sequence (P03956 100-469): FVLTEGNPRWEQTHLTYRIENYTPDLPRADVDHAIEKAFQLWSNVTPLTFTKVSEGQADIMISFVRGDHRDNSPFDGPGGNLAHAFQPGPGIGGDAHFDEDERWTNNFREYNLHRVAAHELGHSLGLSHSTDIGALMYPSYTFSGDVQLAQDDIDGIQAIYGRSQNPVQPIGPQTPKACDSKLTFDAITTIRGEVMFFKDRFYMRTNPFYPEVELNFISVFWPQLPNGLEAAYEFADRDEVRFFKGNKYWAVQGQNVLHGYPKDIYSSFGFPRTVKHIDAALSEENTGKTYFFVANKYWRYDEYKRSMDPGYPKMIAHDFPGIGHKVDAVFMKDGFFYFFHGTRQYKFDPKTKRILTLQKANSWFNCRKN
# How it was run: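 APMA- or trypsin-activated enzyme, purified from spent media of transfected HT-1080 cells, incubated at room temperature with 4 μM MCA-Pro-Leu-Gly-Leu-Dpa-Ala-Arg-NH2 and graded inhibitor in Tris buffer pH 7.5 (10 mM CaCl2, 0.05% Brij). Cleavage read by fluorescence (ex 328/em 415 nm); IC50 from fluorescence reduction versus inhibitor concentration.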
# Human recombinant MMP-14 = molecular target: T5, Human recombinant MMP-14 (Homo sapiens, UniProt P50281)
# T5 construct: The catalytic domain enzyme was expressed in E. coli inclusion bodies, solubilized in urea; made in house
# How it was run: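 Catalytic-domain MMP-14, expressed in E. coli and refolded, activated with APMA or trypsin; compounds incubated at room temperature with 4 μM fluorogenic substrate I (MCA-PLGL-Dpa-AR-NH2) in Tris/NaCl/CaCl2 buffer, pH 7.5. Fluorescence at ex 328/em 415 nm; IC50 from loss of fluorescence versus inhibitor concentration.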
# [1] = value outside parentheses (Ki in parenthesis)
Compound,IC50 (Human recombinant MMP-13; value outside parenthesis) [nM],IC50 (Human recombinant MMP-9; value outside parenthesis) [nM],IC50 (Human recombinant MMP-2; value outside parenthesis) [nM],IC50 (Human recombinant MMP-1; value outside parenthesis) [nM],IC50 (Human recombinant MMP-14; value outside parenthesis) [nM],IC50 (Human recombinant MMP-13; [1]) [nM],IC50 (Human recombinant MMP-9; [1]) [nM],IC50 (Human recombinant MMP-2; [1]) [nM],IC50 (Human recombinant MMP-1; [1]) [nM],IC50 (Human recombinant MMP-14; [1]) [nM],other results
CC(C)[C@H]1C(=O)N(CCCOc2ccc(S(=O)(=O)C3(C(=O)NO)CCOCC3)cc2)C(=O)N1c1ccccc1 [Example 134],7.7,> 10000,2380,> 10000,> 10000,,,,,,
O=C1N(CCCOc2ccc(S(=O)(=O)C3(C(=O)NO)CCOCC3)cc2)CCN1c1ccc(F)cc1 [Example 195],7.5,45.8,20.6,4380,2740,,,,,,
COc1cc2c(cc1OC)C(C)N(C(=O)OCCCCOc1ccc(S(=O)(=O)C3(C(=O)NO)CCOCC3)cc1)CC2 (stereo not shown) [Example 335],,,,,,6.5,172,2.3,> 10000,> 10000,
CN(C(=O)CCCOc1ccc(S(=O)(=O)C2(C(=O)NO)CCOCC2)cc1)c1ccccc1 [Example 654],,,,,,,,,,,IC50 (Human recombinant MMP-13; value outside parentheses): 0.55 nM; IC50 (Human recombinant MMP-9; value outside parentheses): 970 nM; IC50 (Human recombinant MMP-2; value outside parentheses): 160 nM; IC50 (Human recombinant MMP-1; value outside parentheses): > 10000 nM; IC50 (Human recombinant MMP-14; value outside parentheses): > 10000 nM
CC[C@@H]1C(=O)N(CCCOc2ccc(S(=O)(=O)C3(C(=O)NO)CCOCC3)cc2)C(=O)N1c1ccccc1 [Example 106],3.5,> 10000,1050,> 10000,> 10000,,,,,,
O=C(NO)C1(S(=O)(=O)c2ccc(OCCOCC3CCCCO3)cc2)CCOCC1 (stereo not shown) [Example 661],,,,,,,,,,,IC50 (Human recombinant MMP-13; value outside parentheses): 61 nM; IC50 (Human recombinant MMP-9; value outside parentheses): 616 nM; IC50 (Human recombinant MMP-2; value outside parentheses): 78.2 nM; IC50 (Human recombinant MMP-1; value outside parentheses): > 10000 nM; IC50 (Human recombinant MMP-14; value outside parentheses): > 10000 nM
CCCC(CCOc1ccc(S(=O)(=O)C2(C(=O)NO)CCOCC2)cc1)S(C)(=O)=O (stereo not shown) [Example 476],,,,,,230,> 10000,2500,> 10000,> 10000,
CC(=O)c1cccc(OCCOc2ccc(S(=O)(=O)C3(C(=O)NO)CCOCC3)cc2)c1 [Example 658],,,,,,,,,,,IC50 (Human recombinant MMP-13; value outside parentheses): 3.27 nM; IC50 (Human recombinant MMP-9; value outside parentheses): 891 nM; IC50 (Human recombinant MMP-2; value outside parentheses): 156 nM; IC50 (Human recombinant MMP-1; value outside parentheses): > 10000 nM; IC50 (Human recombinant MMP-14; value outside parentheses): > 10000 nM

# Continued, in another order:
IC50 (Human recombinant MMP-13; value outside parenthesis) [nM],IC50 (Human recombinant MMP-9; value outside parenthesis) [nM],IC50 (Human recombinant MMP-2; value outside parenthesis) [nM],IC50 (Human recombinant MMP-1; value outside parenthesis) [nM],IC50 (Human recombinant MMP-14; value outside parenthesis) [nM],IC50 (Human recombinant MMP-13; [1]) [nM],IC50 (Human recombinant MMP-9; [1]) [nM],IC50 (Human recombinant MMP-2; [1]) [nM],IC50 (Human recombinant MMP-1; [1]) [nM],IC50 (Human recombinant MMP-14; [1]) [nM],Compound,other results
0.7,1430,84,> 10000,> 10000,,,,,,O=C(NO)C1(S(=O)(=O)c2ccc(OCCCc3nc(-c4ccc(F)cc4)no3)cc2)CCOCC1 [Example 240],
,,,,,0.9,2010,2.6,> 10000,> 10000,COc1ccc(-c2nnc(CCCCOc3ccc(S(=O)(=O)C4(C(=O)NO)CCOCC4)cc3)o2)cc1 [Example 346],
3.3,4240,15.8,> 10000,> 10000,,,,,,O=C(NO)C1(S(=O)(=O)c2ccc(OCCCc3nc(-c4c(Cl)cccc4Cl)no3)cc2)CCOCC1 [Example 214],
,,,,,0.3,180,4,> 10000,1800,COc1ccc(CCCOc2ccc(S(=O)(=O)C3(C(=O)NO)CCOCC3)cc2)cc1 [Example 465],
,,,,,0.5,271,2.6,3280,2670,O=C(CCCOc1ccc(S(=O)(=O)C2(C(=O)NO)CCOCC2)cc1)Nc1ccccc1O [Example 350],
,,,,,0.5,64.6,8.1,6810,6560,O=C(CCCOc1ccc(S(=O)(=O)C2(C(=O)NO)CCOCC2)cc1)c1cccs1 [Example 297],
